# Data taken from US8642343B2, “Blood separating agent and blood collection container” (Sekisui Medical Co., Ltd., priority 2010, dated 2014).
# Test: Solubility of polymerization inhibitors at 25° C.
# Conditions: in water
SMILES,Solubility (25° C.),Solubility (25° C.) (listed as hydroquinone) [g/100 ml]
"CC(C)(C)c1cc(O)c(C(C)(C)C)cc1O [Material 2, 2,5-di-t-butylhydroquinone]",0.002 g/100 ml,
"COc1ccc(O)cc1 [Material 1, p-methoxyphenol]",4 g/100 ml,
"Oc1ccc(O)cc1 [Material 4, hydroquinone, reference compound]",7 g/100 mL g/100 ml,7
"c1ccc2c(c1)Nc1ccccc1S2 [Material 3, phenothiazine]",insoluble,
